Patent publication US20150045366A1, “SPRAY DRIED FORMULATIONS” (Gilead Sciences, Inc., priority 2012, published 2015)

Assay: Hygroscopicity: weight gain and moisture induced phase transition in humidity-controlled desiccator
Assay type: physicochemical
Protocol: Hygroscopicity of the compositions of invention were measured by placing approximately 20 to 50 mg of the sample in an uncapped scintillation vial. The vial was stored at ambient temperature in a Pyrex brand desiccator (VWR, International, West Chester, Pa.). The humidity within the desiccator was controlled at 55% relative humidity and 75% relative humidity using saturated aqueous solutions of […] and sodium chloride, respectively. The relative humidity was confirmed using a digital hygrometer pen (VWR International, West Chester, Pa.). The weight gain for all the samples was determined after 24 hours; it was not determined whether equilibrium was reached after that period. Visual observation of moisture induced phase transition was also noted.

- Weight gain at 55% RH (55% relative humidity, ambient temperature, after 24 hours): 1.9%
- Weight gain at 75% RH (75% relative humidity, ambient temperature, after 24 hours): 3.7%
- Phase transition (at 55% RH) (visual observation of moisture induced phase transition, 55% RH, 24 hours): yes
- Phase transition (at 75% RH) (visual observation of moisture induced phase transition, 75% RH, 24 hours): yes
SMILES: CC(C)c1nc(CN(C)C(=O)N[C@@H](CCN2CCOCC2)C(=O)N[C@H](CC[C@H](Cc2ccccc2)NC(=O)OCc2cncs2)Cc2ccccc2)cs1 [Compound Free base, thiazol-5-ylmethyl (2R,5R)-5-((S)-2-(3-((2-isopropylthiazol-4-yl)methyl)-3-methylureido)-4-morpholinobutanamido)-1,6-diphenylhexan-2-ylcarbamate]
